Test results published in paper PMC10743895, “Synthesis of 1,3,4-Thiadiazole Derivatives and Their Anticancer Evaluation” (International Journal of Molecular Sciences, 2023).
Read-outs that look alike come from different tables or passages of the source.

Columns and labels:
HUVEC normal cells = experiment: MTS cell viability assay, HUVEC normal cells; type: cell-based, human
Experimental: (§1) To determine the optimal working concentration, dose-effect curves were made for each compound in the range of concentrations between 6.25 and 400 μM.
(§2) LoVo (human colorectal adenocarcinoma) human cancer cell line and HUVEC normal cells were purchased from American Type Culture Collection (ATCC). The MCF-7 human breast adenocarcinoma cell line was provided from European Collection of Authenticated Cell Cultures (ECACC). HUVEC normal cells, isolated from the vascular endothelium of an umbilical cord, were used as a reference. Adherent cells were maintained in culture in Dulbecco’s modified Eagle medium/nutrient mixture F-12 (DMEM:F12) with 2 mM of L-glutamine, 10% fetal bovine serum, 100 units/mL of penicillin and 100 μg/mL of streptomycin, and incubated at 37 °C in a 5% CO2-humidified atmosphere. After 24 h, adherent cells were treated with different concentrations of the compounds for different periods of time. Cis-Pt and DOX, conventional oncology drugs used in cancer treatments, can be used as a positive control of the experiments. […] Then, cells were detached with a nonenzymatic solution of phosphate-buffered saline (PBS)/1 mM EDTA and washed twice in PBS.
(§3) The study utilized a colorimetric assay based on MTS (chemically known as 3-(4,5-dimethylthiazol-2-yl)-5-(3-carboxymethoxyphenyl)-2-(4-sulfophenyl)-2H-tetrazolium) and called CellTiter 96 Aqueous One Solution Cell proliferation Assay (Promega, Madison, WI, USA) in order to measure cell viability. The assay was performed in triplicate in 96-well microtiter plates with a flat bottom (Falcon). A number of 1 × 10^4 cells/well were cultured in 100 μL for 24 h, culture supernatants were discarded, and then cells were treated for 24 and 48 h with increasing concentrations of the tested compound. After the end of the incubation time, 20 μL of the reagent containing MTS and PES (phenazine ethosulfate) was added in each well. Plates were incubated for 4 h at 37 °C, with mild agitation every 15 min. The reduction in the tetrazolium compound to formazan was spectrophotometrically measured at λ = 492 nm using a Dynex plate reader (DYNEX Technologies MRS, Chantilly, VA, USA). The percentage of viability compared to untreated cells (considered 100% viable) was calculated with the formula:(1) Cell viability (%)=Absorbance treated cells−Absorbance culture medium/Absorbance untreated cells−Absorbance culture medium×100
(§4) The cell viability compared was calculated and data were expressed as a mean ± standard deviation (SD) of the experiments and obtained in triplicate (n = 3).

LoVo cells [1] = experiment: Apoptosis assay (Annexin V-FITC/PI flow cytometry), LoVo; type: cell-based, human
Experimental: (§5) Two reference concentrations, 5 μM and 50 μM, and two distinct treatment durations, 24 and 48 h, were employed to assess the influence of the test compounds on apoptosis in both normal and tumor cells. […] HUVEC cells were exposed to both drugs.
(§6) The apoptosis assay was performed according to the manufacturer’s instructions using the Annexin V-FITC kit (BD Biosciences, San Jose, CA, USA). Cells untreated and treated with the experimental compound were suspended in a cold binding buffer. The percentages of apoptotic cells were determined by double staining with Annexin V-FITC/PI. In each tube was added 400 μL of Annexin V binding buffer and the 5000 cells/sample for 15 min in the dark at room temperature. The cells were analyzed using a FACSCantoII flow-cytometer (Becton Dickinson—BD, La Jolla, CA, USA). The analysis was performed using DIVA 6.2 software to discriminate viable cells (FITC-PI-) from necrotic cells (FITC + PI+), and early apoptosis (FITC + PI) from late apoptosis.

MCF-7 cells [2] = experiment: Apoptosis assay (Annexin V-FITC/PI flow cytometry), MCF-7; type: cell-based, human
Experimental: as §5, §6

HUVEC cells = experiment: Apoptosis assay (Annexin V-FITC/PI flow cytometry), HUVEC; type: cell-based, human
Experimental: as §5, §6

Daphnia magna = Daphnia magna toxicity assay; type: in vivo; conditions: for Maximum Average L% (lethality): up to 200 µM
Experimental: The Daphnia magna bioassay results are presented in Table 3 as the maximum average percentage of lethality (L%) registered for each compound and the median lethal concentration (LC50) if the values permitted its calculation.
Daphnia magna Straus is parthenogenetically maintained at ‘Carol Davila’ University’s Department of Pharmaceutical Botany and Cell Biology. The culture was consistently maintained at a temperature of 25 °C, with a 16-h light and 8-h dark photoperiod. To ensure consistency, young daphnids were carefully chosen based on their size and kept in an artificial medium for 24 h prior to the assessment. The bioassay involved 10 daphnids per replicate, using tissue culture plates with 12 wells from Greiner Bio-One. The experimental procedure followed the protocol described in previous studies.
Each determination was carried out in duplicate.

LoVo cells [3] = experiment: MTS cell viability assay, LoVo cells; type: cell-based, human
Experimental: as §1, §2, §3, §4

MCF-7 cells [4] = experiment: MTS cell viability assay, MCF-7 cells; type: cell-based, human; conditions: for IC50: Homo sapiens
Experimental: as §1, §2, §3, §4

[5] = Homo sapiens, HUVEC, read-out: IC50 (48 h) HUVEC, 48 h exposure
[6] = Homo sapiens, HUVEC, 24 h exposure, read-out: IC50 (24 h) HUVEC
[7] = Homo sapiens, LoVo, read-out: IC50 (48 h) LoVo, 48 h exposure
[8] = Homo sapiens, LoVo, 24 h exposure, read-out: IC50 (24 h) LoVo
[9] = MCF7, read-out: IC50 (48 h) MCF-7, 48 h exposure
[10] = MCF7, 24 h exposure, read-out: IC50 (24 h) MCF-7

Compound	IC50 (HUVEC normal cells; [5]) [µM]	IC50 (HUVEC normal cells; [6]) [µM]	Total Apoptosis (%) 24 h LoVo (LoVo cells [1]; 5 μM) [%]	Total Apoptosis (%) 48 h LoVo (LoVo cells [1]; 5 μM) [%]	Total Apoptosis (%) 24 h LoVo (LoVo cells [1]; 50 μM) [%]	Total Apoptosis (%) 48 h LoVo (LoVo cells [1]; 50 μM) [%]	Total Apoptosis (%) 24 h MCF-7 (MCF-7 cells [2]; 5 μM) [%]	Total Apoptosis (%) 48 h MCF-7 (MCF-7 cells [2]; 5 μM) [%]	Total Apoptosis (%) 24 h MCF-7 (MCF-7 cells [2]; 50 μM) [%]	Total Apoptosis (%) 48 h MCF-7 (MCF-7 cells [2]; 50 μM) [%]	Total Apoptosis (%) 24 h HUVEC (HUVEC cells; 5 μM) [%]	Total Apoptosis (%) 48 h HUVEC (HUVEC cells; 5 μM) [%]	Total Apoptosis (%) 24 h HUVEC (HUVEC cells; 50 μM) [%]	Total Apoptosis (%) 48 h HUVEC (HUVEC cells; 50 μM) [%]	Maximum Average L% (lethality) (Daphnia magna; 24 h) [%]	Maximum Average L% (lethality) (Daphnia magna; 48 h) [%]	IC50 (LoVo cells [3]; [7]) [µM]	IC50 (LoVo cells [3]; [8]) [µM]	IC50 (MCF-7 cells [4]; [9]) [µM]	IC50 (MCF-7 cells [4]; [10]) [µM]	also measured
Nc1nnc(-c2ccc(O)c(O)c2)s1 [2c, 5-(3,4-Dihydroxyphenyl)-1,3,4-thiadiazol-2-amine]	155	> 400	7.5	13.0	6.8	13.8	11.7	26.6	7.6	15.1	16.6	15.6	12.1	12.1	0	25	117	163	398	> 400	viability of MCF-7 cells (MCF-7 cells [4]; 48-h period): less than 50%
Nc1nnc(-c2ccccc2CSc2ccccc2)s1 [2f, 5-[2-(Phenylthiomethyl)phenyl]-1,3,4-thiadiazol-2-amine]	> 400	> 400	14.9	27.0	8.2	17.4	22.0	44.0	12.6	45.0	19.9	15.9	18.6	14.6	5	10	80.7	> 400	> 400	> 400	–
COc1cccc2c1C(=O)c1c(O)c3c(c(O)c1C2=O)C[C@@](O)(C(=O)CO)C[C@@H]3O[C@H]1C[C@H](N)[C@H](O)[C@H](C)O1 [DOX, Doxorubicin, reference compound]	1.35	1.03	–	–	–	–	–	33.6	19.0	49.0	15.2	9.5	18.6	–	–	–	–	–	87.4	129	–
COc1cc(-c2nnc(N)s2)cc(OC)c1OC [2e, 5-(3,4,5-Trimethoxyphenyl)-1,3,4-thiadiazol-2-amine]	300	> 400	4.9	14.3	16.4	19.9	9.1	24.6	14.9	34.2	26.3	13.1	24.3	15.5	0	5	79.2	108	> 400	> 400	–
Nc1nnc(-c2ccccc2CS(=O)(=O)c2ccccc2)s1 [2g, 5-[2-(Benzenesulfonylmethyl)phenyl]-1,3,4-thiadiazol-2-amine]	44.6	> 400	13.6	23.6	19.6	24.8	18.7	42.2	19.7	44.5	19.0	14.7	19.3	14.1	0	20	2.44	18.1	23.3	43.3	lethality percentages in the Daphnia test (Daphnia magna; even at the highest concentration of 200 µM): below 20%
N.N.[Cl][Pt][Cl] [Cis-Pt, Cisplatin, reference compound]	–	–	15.7	31.6	24.5	38.7	–	–	–	–	15.7	14.8	21.7	17.4	–	–	–	–	–	–	IC50 (HUVEC normal cells; 24 h exposure, read-out: IC50 (24 h) HUVEC): 11.1 µM; IC50 (HUVEC normal cells; read-out: IC50 (48 h) HUVEC, 48 h exposure): 8.23 µM; IC50 (LoVo cells [3]; 24 h exposure, read-out: IC50 (24 h) LoVo): 12.8 µM; IC50 (LoVo cells [3]; read-out: IC50 (48 h) LoVo, 48 h exposure): 80.1 µM
